Assay results: article PMC11167047 (Cell Death Discovery, 2024)

Legend:
Assay in all cases: kinome screen (33PanQinase)
Type in all cases: biochemical
INSRR = biological target: T1, INSRR (Homo sapiens, UniProt P14616)
T1 construct: purchased Reaction Biology Europe GmbH (formerly ProQinase)
Experimental: (§1) The Kinome Screening was performed by Reaction Biology Europe GmbH (http://reactionbiology.com; Freiburg i. Br., Germany).

SYK = biological target: T2, SYK (Homo sapiens, UniProt P43405)
T2 construct: purchased Reaction Biology Europe GmbH (formerly ProQinase)
Experimental: as §1

FGFR2 = biological target: T3, FGFR2 (Homo sapiens, UniProt P21802)
T3 construct: purchased Reaction Biology Europe GmbH (formerly ProQinase)
Experimental: as §1

VRK1 = biological target: T4, VRK1 (Homo sapiens, UniProt Q99986)
T4 construct: purchased Reaction Biology Europe GmbH (formerly ProQinase)
T4 sequence (Q99986 1-396): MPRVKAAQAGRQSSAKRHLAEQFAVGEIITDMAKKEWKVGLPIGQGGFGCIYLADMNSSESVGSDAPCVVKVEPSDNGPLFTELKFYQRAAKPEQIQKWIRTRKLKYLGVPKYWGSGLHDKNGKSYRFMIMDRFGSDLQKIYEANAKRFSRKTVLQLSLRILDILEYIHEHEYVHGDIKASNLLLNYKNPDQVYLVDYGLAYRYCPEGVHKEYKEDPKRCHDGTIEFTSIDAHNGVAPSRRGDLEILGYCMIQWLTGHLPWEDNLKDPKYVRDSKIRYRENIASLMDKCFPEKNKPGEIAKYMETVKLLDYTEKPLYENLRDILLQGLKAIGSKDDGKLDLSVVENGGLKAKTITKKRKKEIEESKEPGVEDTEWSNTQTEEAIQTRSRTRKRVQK
Experimental: as §1

JNK3 = biological target: T5, JNK3 (Homo sapiens, UniProt P53779)
T5 construct: purchased Reaction Biology Europe GmbH (formerly ProQinase)
Experimental: as §1

CDK4/CycD1 = biological target: T6, CDK4/CycD1 (Homo sapiens, UniProt P11802)
T6 construct: purchased Reaction Biology Europe GmbH (formerly ProQinase)
Experimental: as §1

ZAP70 = biological target: T7, ZAP70 (Homo sapiens, UniProt P43403)
T7 construct: purchased Reaction Biology Europe GmbH (formerly ProQinase)
T7 sequence (P43403 1-619): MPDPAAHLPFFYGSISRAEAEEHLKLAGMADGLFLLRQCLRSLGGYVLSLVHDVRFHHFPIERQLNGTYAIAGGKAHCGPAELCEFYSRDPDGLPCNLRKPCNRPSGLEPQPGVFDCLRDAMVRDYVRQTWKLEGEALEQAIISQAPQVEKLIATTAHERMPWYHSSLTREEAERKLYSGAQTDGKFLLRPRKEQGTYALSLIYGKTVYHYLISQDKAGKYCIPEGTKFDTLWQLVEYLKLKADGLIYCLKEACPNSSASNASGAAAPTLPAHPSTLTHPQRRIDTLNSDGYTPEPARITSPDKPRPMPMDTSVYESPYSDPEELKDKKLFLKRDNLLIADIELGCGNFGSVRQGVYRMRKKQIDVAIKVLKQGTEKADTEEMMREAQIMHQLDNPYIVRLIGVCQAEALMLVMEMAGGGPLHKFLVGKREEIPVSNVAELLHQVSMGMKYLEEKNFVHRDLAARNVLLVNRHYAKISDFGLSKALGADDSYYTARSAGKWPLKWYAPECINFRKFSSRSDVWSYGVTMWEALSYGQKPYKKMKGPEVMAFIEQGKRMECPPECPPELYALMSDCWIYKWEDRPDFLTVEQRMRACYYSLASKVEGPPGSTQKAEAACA
Experimental: as §1

PKCγ = biological target: T8, PKCγ (Homo sapiens, UniProt P05129)
T8 construct: purchased Reaction Biology Europe GmbH (formerly ProQinase)
Experimental: as §1

PAK2 = biological target: T9, PAK2 (Homo sapiens, UniProt Q13177)
T9 construct: purchased Reaction Biology Europe GmbH (formerly ProQinase)
Experimental: as §1

MAP3K11 = biological target: T10, MAP3K11 (Homo sapiens, UniProt Q16584)
T10 construct: purchased Reaction Biology Europe GmbH (formerly ProQinase)
Experimental: as §1

PKCε = biological target: T11, PKCε (Homo sapiens, UniProt Q02156)
T11 construct: purchased Reaction Biology Europe GmbH (formerly ProQinase)
T11 sequence (Q02156 1-737): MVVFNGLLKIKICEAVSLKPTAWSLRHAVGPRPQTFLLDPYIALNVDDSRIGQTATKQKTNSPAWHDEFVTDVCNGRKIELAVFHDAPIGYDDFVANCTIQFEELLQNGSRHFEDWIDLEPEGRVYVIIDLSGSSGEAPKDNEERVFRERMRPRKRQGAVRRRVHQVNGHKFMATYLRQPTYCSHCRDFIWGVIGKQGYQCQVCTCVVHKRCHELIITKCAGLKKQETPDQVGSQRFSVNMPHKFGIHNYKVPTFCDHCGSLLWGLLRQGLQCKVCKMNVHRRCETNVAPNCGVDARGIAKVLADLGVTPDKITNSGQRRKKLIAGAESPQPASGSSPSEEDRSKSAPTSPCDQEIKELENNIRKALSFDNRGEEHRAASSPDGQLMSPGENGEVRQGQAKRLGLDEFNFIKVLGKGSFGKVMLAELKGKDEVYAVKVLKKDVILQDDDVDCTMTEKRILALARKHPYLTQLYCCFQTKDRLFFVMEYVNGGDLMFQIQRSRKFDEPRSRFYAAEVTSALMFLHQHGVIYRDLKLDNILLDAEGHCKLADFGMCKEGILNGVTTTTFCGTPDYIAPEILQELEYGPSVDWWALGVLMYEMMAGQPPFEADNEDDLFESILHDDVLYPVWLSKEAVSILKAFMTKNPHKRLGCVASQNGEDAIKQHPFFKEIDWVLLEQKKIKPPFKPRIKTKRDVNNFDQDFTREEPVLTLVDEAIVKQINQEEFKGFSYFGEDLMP
Experimental: as §1

TYK2 = biological target: T12, TYK2 (Homo sapiens, UniProt P29597)
T12 construct: purchased Reaction Biology Europe GmbH (formerly ProQinase)
Experimental: as §1

T5 sequence (P53779 whole entry): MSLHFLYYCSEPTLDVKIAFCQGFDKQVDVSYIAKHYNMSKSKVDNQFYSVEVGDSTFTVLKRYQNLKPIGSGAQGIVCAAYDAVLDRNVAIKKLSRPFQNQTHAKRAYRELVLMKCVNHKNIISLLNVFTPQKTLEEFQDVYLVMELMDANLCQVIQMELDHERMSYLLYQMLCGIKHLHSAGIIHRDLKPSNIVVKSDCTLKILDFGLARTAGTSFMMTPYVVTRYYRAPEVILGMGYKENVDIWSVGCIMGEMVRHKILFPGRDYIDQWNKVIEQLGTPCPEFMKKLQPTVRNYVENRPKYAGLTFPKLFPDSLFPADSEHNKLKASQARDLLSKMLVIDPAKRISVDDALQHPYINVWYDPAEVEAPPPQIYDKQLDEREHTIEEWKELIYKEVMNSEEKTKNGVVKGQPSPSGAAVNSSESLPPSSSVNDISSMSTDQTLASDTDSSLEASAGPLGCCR
T12 sequence (P29597 whole entry): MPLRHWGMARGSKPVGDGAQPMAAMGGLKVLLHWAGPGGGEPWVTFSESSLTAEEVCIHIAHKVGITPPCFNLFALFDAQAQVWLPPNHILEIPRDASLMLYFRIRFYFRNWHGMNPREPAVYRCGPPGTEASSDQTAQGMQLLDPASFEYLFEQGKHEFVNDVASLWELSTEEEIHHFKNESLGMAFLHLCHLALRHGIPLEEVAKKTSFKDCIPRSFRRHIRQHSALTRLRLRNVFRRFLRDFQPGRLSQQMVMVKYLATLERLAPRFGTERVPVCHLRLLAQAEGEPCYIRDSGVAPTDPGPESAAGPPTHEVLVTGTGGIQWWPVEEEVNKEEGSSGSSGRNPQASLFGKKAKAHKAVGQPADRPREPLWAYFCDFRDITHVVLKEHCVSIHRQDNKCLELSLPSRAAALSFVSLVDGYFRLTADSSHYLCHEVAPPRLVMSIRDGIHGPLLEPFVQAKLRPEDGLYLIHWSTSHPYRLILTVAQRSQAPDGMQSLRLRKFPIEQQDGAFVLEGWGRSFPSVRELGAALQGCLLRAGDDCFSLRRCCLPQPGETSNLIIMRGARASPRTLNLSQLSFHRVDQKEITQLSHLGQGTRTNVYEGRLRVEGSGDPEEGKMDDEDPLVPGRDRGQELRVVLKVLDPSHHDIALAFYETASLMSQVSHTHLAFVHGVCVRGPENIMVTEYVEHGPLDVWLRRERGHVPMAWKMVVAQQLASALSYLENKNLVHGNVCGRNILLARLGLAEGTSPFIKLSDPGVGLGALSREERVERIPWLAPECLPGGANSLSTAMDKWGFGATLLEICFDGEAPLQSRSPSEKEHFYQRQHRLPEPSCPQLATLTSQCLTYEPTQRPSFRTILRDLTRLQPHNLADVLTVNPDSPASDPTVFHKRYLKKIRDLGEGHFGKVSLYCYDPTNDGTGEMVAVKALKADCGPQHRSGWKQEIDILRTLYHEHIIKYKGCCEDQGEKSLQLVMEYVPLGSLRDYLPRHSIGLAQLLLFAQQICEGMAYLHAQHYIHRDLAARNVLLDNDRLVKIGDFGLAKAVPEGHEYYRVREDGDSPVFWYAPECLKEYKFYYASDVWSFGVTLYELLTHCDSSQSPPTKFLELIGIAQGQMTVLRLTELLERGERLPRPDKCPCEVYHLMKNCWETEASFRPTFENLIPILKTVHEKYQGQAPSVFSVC
T6 sequence (P11802 whole entry): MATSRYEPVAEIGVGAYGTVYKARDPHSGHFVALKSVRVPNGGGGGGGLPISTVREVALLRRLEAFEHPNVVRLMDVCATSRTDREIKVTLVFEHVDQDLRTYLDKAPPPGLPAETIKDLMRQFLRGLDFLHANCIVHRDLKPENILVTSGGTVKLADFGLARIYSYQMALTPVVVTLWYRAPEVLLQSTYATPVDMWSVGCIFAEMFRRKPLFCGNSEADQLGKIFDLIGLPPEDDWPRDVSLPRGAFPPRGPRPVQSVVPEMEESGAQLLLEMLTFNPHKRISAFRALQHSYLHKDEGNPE
T6 sequence (P24385 whole entry partner): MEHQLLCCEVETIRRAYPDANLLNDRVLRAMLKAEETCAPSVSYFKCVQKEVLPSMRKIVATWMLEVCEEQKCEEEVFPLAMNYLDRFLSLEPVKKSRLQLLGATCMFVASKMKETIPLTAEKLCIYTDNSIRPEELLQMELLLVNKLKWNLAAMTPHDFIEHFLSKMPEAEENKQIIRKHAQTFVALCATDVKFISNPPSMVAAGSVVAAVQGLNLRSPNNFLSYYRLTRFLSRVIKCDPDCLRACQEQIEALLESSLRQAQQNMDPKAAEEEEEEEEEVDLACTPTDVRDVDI
T10 sequence (Q16584 whole entry): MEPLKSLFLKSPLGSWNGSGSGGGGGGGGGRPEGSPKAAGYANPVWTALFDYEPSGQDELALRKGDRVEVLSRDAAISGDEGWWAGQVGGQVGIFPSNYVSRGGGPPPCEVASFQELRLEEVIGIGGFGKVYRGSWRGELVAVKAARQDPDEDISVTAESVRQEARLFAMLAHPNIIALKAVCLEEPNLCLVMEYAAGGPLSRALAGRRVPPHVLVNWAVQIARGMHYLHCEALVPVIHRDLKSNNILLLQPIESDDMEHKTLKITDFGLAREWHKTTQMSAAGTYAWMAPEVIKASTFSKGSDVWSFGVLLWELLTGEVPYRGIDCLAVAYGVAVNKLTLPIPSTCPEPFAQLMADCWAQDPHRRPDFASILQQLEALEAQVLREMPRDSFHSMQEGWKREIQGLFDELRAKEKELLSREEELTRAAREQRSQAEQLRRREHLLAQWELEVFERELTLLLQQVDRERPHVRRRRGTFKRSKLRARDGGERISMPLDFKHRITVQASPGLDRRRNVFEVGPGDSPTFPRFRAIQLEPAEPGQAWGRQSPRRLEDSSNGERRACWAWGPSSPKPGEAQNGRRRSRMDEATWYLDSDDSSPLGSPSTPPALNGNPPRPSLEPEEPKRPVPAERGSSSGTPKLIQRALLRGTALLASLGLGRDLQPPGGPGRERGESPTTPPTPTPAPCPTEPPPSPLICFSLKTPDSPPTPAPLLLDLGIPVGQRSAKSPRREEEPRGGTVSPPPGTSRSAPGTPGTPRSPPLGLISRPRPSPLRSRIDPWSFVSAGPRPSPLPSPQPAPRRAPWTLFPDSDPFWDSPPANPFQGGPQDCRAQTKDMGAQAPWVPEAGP
T3 sequence (P21802 22-821): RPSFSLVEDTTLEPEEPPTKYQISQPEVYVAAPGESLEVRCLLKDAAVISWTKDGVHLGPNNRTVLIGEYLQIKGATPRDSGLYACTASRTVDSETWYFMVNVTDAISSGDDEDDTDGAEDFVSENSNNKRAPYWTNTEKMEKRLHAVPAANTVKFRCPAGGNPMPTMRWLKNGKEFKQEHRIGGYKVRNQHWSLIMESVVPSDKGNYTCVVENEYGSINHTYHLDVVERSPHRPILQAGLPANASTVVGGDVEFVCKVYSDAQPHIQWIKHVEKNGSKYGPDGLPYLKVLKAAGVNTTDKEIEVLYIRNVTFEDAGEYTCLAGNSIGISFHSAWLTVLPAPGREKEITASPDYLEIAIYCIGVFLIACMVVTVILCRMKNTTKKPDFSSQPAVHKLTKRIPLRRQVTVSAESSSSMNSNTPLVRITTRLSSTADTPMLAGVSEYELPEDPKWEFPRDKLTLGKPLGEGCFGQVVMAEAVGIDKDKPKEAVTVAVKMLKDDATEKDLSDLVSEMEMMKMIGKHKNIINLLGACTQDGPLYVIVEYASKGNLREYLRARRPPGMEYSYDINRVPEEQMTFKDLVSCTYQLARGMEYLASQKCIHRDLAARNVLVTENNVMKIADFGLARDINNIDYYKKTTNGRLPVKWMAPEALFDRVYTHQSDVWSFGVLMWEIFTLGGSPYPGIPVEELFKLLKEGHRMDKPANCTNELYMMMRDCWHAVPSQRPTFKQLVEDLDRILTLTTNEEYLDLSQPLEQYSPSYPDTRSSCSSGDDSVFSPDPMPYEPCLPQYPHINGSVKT

| SMILES | residual kinase activity (INSRR; 0.3 µM) | residual kinase activity (SYK; 0.3 µM) | residual kinase activity (FGFR2; 0.3 µM) | residual kinase activity (VRK1; 0.3 µM) | residual kinase activity (JNK3; 0.3 µM) | residual kinase activity (CDK4/CycD1; 0.3 µM) | residual kinase activity (ZAP70; 0.3 µM) | residual kinase activity (PKCγ; 0.3 µM) | residual kinase activity (PAK2; 0.3 µM) | residual kinase activity (MAP3K11; 0.3 µM) | residual kinase activity (PKCε; 0.3 µM) | residual kinase activity (TYK2; 0.3 µM) | other results |
| --- | --- | --- | --- | --- | --- | --- | --- | --- | --- | --- | --- | --- | --- |
| COc1ccnc2[nH]cc(-c3cc(N)nc(N)c3)c12 [meriolin 16] | 96 % of control | 84 % of control | 85 % of control | 108 % of control | 68 % of control | 36 % of control | 83 % of control | 54 % of control | 93 % of control | 74 % of control | 4 % of control | 68 % of control | residual kinase activity (INSRR; 0.03 µM): 97 % of control; residual kinase activity (SYK; 0.03 µM): 93 % of control; residual kinase activity (FGFR2; 0.03 µM): 94 % of control; residual kinase activity (VRK1; 0.03 µM): 114 % of control; residual kinase activity (JNK3; 0.03 µM): 73 % of control; residual kinase activity (CDK4/CycD1; 0.03 µM): 86 % of control; residual kinase activity (ZAP70; 0.03 µM): 95 % of control; residual kinase activity (PKCγ; 0.03 µM): 99 % of control; residual kinase activity (PAK2; 0.03 µM): 92 % of control; residual kinase activity (MAP3K11; 0.03 µM): 100 % of control; residual kinase activity (PKCε; 0.03 µM): 25 % of control; residual kinase activity (TYK2; 0.03 µM): 105 % of control |
| c1ccc(CNc2cc(-c3c[nH]c4ncccc34)ccn2)cc1 [meriolin 36] | 85 % of control | 90 % of control | 52 % of control | 104 % of control | 54 % of control | 24 % of control | 110 % of control | 33 % of control | 71 % of control | 45 % of control | 5 % of control | 6 % of control | residual kinase activity (INSRR; 3 µM): 39 % of control; residual kinase activity (SYK; 3 µM): 64 % of control; residual kinase activity (FGFR2; 3 µM): 9 % of control; residual kinase activity (VRK1; 3 µM): 61 % of control; residual kinase activity (JNK3; 3 µM): 13 % of control; residual kinase activity (CDK4/CycD1; 3 µM): 4 % of control; residual kinase activity (ZAP70; 3 µM): 85 % of control; residual kinase activity (PKCγ; 3 µM): 5 % of control; residual kinase activity (PAK2; 3 µM): 17 % of control; residual kinase activity (MAP3K11; 3 µM): 4 % of control; residual kinase activity (PKCε; 3 µM): 1 % of control; residual kinase activity (TYK2; 3 µM): 1 % of control |
